# From patent publication US11459315B2, “Modulators of methyl modifying enzymes, compositions and uses thereof” (Constellation Pharmaceuticals, Inc., priority 2017, dated 2022)
# pEC50, pIC50: −log10 of the molar value. Read-outs that look alike come from different tables or passages of the source.
# Columns and labels:
# PRC2 containing wt EZH2 = PRC2 containing wt EZH2 (Homo sapiens (Human), UniProt Q15910); assay: EZH2 biochemical assay (IC50), 3H-SAM incorporation into biotinylated H3 peptide; conditions: 30 pM PRC2 containing wt EZH2, 3-5 h pre-incubation
# PRC2 containing wt EZH2, sequence (Q15910 whole entry): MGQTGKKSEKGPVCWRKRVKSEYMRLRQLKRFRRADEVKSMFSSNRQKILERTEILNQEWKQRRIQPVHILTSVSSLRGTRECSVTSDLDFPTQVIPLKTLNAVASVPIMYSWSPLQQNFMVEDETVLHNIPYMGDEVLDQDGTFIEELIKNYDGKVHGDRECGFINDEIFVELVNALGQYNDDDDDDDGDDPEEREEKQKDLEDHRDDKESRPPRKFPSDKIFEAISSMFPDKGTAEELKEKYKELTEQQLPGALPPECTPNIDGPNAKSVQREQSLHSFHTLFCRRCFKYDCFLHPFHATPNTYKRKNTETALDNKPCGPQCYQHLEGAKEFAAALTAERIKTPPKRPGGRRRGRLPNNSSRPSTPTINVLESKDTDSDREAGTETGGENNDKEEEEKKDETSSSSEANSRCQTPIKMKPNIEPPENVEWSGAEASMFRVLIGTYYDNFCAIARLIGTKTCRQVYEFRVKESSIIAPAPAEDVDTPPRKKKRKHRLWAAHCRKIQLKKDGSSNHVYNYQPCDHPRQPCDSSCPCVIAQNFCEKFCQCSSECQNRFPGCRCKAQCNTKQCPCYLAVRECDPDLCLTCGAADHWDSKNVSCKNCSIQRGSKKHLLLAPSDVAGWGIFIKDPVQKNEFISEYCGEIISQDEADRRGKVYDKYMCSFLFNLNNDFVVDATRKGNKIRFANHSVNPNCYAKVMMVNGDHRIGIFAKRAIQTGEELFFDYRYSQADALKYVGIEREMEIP
# PRC2 containing wt EZH2, sequence (O75530 whole entry partner): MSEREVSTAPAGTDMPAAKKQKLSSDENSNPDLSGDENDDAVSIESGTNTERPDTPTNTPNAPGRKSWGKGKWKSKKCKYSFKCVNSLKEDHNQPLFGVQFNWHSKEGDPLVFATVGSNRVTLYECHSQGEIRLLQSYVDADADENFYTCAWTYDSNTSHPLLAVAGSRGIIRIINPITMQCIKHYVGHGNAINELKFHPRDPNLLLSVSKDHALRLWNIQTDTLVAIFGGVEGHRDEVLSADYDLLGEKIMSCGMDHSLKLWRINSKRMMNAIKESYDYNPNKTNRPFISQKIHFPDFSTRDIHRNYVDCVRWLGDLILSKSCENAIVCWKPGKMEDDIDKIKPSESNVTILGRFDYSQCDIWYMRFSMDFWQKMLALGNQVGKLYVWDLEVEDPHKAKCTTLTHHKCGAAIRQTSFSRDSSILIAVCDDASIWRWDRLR
# PRC2 containing wt EZH2, sequence (Q15022 whole entry partner): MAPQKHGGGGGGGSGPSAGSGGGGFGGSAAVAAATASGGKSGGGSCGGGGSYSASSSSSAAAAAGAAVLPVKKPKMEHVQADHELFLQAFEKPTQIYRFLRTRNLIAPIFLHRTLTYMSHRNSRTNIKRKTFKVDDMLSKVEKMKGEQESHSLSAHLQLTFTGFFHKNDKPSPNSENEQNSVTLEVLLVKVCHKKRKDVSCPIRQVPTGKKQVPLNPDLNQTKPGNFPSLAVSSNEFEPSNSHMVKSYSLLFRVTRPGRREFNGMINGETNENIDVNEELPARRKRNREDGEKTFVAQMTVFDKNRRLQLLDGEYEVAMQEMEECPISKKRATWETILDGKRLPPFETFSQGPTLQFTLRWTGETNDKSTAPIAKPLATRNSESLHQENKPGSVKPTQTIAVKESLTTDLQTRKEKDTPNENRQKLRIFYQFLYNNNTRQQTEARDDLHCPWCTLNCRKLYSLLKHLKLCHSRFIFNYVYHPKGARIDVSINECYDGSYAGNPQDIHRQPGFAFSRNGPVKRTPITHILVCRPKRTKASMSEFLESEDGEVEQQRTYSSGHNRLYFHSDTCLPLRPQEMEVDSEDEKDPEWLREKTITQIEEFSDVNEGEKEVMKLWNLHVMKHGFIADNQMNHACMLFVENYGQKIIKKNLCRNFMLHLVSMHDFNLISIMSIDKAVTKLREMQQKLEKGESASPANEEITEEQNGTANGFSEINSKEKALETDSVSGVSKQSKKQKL
# PRC2 containing wt EZH2, sequence (Q09028 whole entry partner): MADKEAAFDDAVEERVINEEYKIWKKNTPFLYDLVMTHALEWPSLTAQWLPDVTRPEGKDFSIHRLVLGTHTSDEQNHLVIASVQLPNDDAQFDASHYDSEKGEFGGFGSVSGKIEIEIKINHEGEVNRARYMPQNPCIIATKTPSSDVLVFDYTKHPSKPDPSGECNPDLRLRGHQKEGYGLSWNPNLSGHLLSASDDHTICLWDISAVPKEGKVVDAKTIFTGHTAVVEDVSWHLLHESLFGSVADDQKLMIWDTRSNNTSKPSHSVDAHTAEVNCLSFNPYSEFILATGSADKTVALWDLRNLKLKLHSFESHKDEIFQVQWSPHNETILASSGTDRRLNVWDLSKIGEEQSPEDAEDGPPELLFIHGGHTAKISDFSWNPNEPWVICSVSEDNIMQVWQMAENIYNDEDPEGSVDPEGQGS
# PRC2 containing wt EZH2, sequence (Q6ZN18 whole entry partner): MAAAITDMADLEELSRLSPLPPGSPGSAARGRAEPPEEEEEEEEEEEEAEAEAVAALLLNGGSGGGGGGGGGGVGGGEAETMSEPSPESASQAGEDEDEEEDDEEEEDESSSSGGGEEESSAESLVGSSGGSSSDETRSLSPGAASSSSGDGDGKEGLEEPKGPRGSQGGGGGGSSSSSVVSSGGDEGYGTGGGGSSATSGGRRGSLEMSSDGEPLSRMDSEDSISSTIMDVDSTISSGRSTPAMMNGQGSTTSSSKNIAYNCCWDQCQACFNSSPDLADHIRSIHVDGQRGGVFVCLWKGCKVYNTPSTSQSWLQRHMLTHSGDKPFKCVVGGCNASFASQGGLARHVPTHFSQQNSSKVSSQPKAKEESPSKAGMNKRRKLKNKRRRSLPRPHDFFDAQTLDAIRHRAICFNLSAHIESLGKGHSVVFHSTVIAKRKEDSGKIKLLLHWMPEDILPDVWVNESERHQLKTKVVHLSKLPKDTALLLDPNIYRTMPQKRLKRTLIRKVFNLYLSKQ
# Procedure, shortened: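 The PRC2 pentamer with wt EZH2 (30 pM) was pre-incubated for 3-5 h with 450 nM SAM plus 450 nM ³H-SAM, 2 µM H3K27me3 activating peptide and compound (0.8% DMSO) in Tris at pH 8.5. Biotinylated H3K27me1 peptide was added and the reaction ran 18-22 h at RT. Incorporated ³H was captured on streptavidin plates, and IC50 was taken from a four-parameter fit.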
# [1] = tested on: H3K27me3 mark in HeLa cells (EZH2); assay: H3K27me3 Alpha Hela Assay (AlphaLISA); type: cell-based; conditions: Homo sapiens, HeLa, 72 h, HeLa cells, 72 hrs; read-out: EZH2 Cell H3K27me3 Alpha HeLa (EC50 K27me3)
# Procedure, shortened: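 HeLa cells (1,000/well) treated with ten 3-fold compound doses for 72 h at 37 °C; lysates extracted and H3K27me3 detected by AlphaLISA with anti-K27me3 acceptor beads, biotinylated anti-H3 (3 nM) and streptavidin donor beads. EC50 from DMSO-normalized dose-response curves; duplicate plate assessed viability.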
SMILES,pIC50 (PRC2 containing wt EZH2; read-out: EZH2 (IC50)),pEC50 [1],pIC50 (PRC2 containing wt EZH2; EZH2 (IC50))
"COc1cccc2c1c(C(=O)NCc1c(SC)cc(C)[nH]c1=O)c(C)n2[C@H](C)C1CCN(CC(F)(F)F)CC1 [Example 101, (R)-4-methoxy-2-methyl-N-((6-methyl-4-(methylthio)-2-oxo-1,2-dihydropyridin-3-yl)methyl)-1-(1-(1-(2,2,2-trifluoroethyl)piperidin-4-yl)ethyl)-1H-indole-3-carboxamide]",8.30 to 9.30,7.00 to 8.00,
"CSc1cc(C)[nH]c(=O)c1CNC(=O)c1c(C)n([C@H](C)C2CCN(CC(F)(F)F)CC2)c2cccc(Cl)c12 [Example 103, (R)-4-chloro-2-methyl-N-((6-methyl-4-(methylthio)-2-oxo-1,2-dihydropyridin-3-yl)methyl)-1-(1-(1-(2,2,2-trifluoroethyl)piperidin-4-yl)ethyl)-1H-indole-3-carboxamide]",,> 8.00,> 9.30
"Cc1cc(SC(F)F)c(CNC(=O)c2c(C)n([C@H](C)C3CCN(CC(F)(F)F)CC3)c3ccccc23)c(=O)[nH]1 [Example 105, (R)-N-((4-((difluoromethyl)thio)-6-methyl-2-oxo-1,2-dihydropyridin-3-yl)methyl)-2-methyl-1-(1-(1-(2,2,2-trifluoroethyl)piperidin-4-yl)ethyl)-1H-indole-3-carboxamide]",8.30 to 9.30,7.00 to 8.00,
"CSc1cc(C)[nH]c(=O)c1CNC(=O)c1c(C)n([C@H](C)C2CCC(N3CC[C@@H](F)C3)CC2)c2ncc(Cl)cc12 (stereo partly drawn) [Example 107, 5-chloro-1-((R)-1-(4-((R)-3-fluoropyrrolidin-1-yl)cyclohexyl)ethyl)-2-methyl-N-((6-methyl-4-(methylthio)-2-oxo-1,2-dihydropyridin-3-yl)methyl)-1H-pyrrolo[2,3-b]pyridine-3-carboxamide]",> 9.30,7.00 to 8.00,
"CSc1cc(C)[nH]c(=O)c1CNC(=O)c1c(C)n([C@H](C)C2CCC(N3CC(OC(F)F)C3)CC2)c2ncncc12 (stereo partly drawn) [Example 108, 7-((R)-1-(4-(3-(difluoromethoxy)azetidin-1-yl)cyclohexyl)ethyl)-6-methyl-N-((6-methyl-4-(methylthio)-2-oxo-1,2-dihydropyridin-3-yl)methyl)-7H-pyrrolo[2,3-d]pyrimidine-5-carboxamide]",> 9.30,> 8.00,
"Cc1cc(SC2CCC2)c(CNC(=O)c2c(C)n([C@H](C)C3CCN(CC(F)(F)F)CC3)c3ccccc23)c(=O)[nH]1 [Example 109, (R)-N-((4-(cyclobutylthio)-6-methyl-2-oxo-1,2-dihydropyridin-3-yl)methyl)-2-methyl-1-(1-(1-(2,2,2-trifluoroethyl)piperidin-4-yl)ethyl)-1H-indole-3-carboxamide]",> 9.30,7.00 to 8.00,
"CSc1cc(C)[nH]c(=O)c1CNC(=O)c1c(C)n([C@H](C)C2CCC(N3CC(C(F)(F)F)C3)CC2)c2ncccc12 (stereo partly drawn) [Example 110, 2-methyl-N-((6-methyl-4-(methylthio)-2-oxo-1,2-dihydropyridin-3-yl)methyl)-1-((R)-1-(4-(3-(trifluoromethyl)azetidin-1-yl)cyclohexyl)ethyl)-1H-pyrrolo[2,3-b]pyridine-3-carboxamide]",> 9.30,7.00 to 8.00,
"CSc1cc(C)[nH]c(=O)c1CNC(=O)c1c(C)n([C@H](C)C2CCC(N3CCC(OC4CC4)C3)CC2)c2ncccc12 (stereo partly drawn) [Example 111, 1-((1R)-1-(4-(3-cyclopropoxypyrrolidin-1-yl)cyclohexyl)ethyl)-2-methyl-N-((6-methyl-4-(methylthio)-2-oxo-1,2-dihydropyridin-3-yl)methyl)-1H-pyrrolo[2,3-b]pyridine-3-carboxamide]",> 9.30,7.00 to 8.00,
"CSc1cc(C)[nH]c(=O)c1CNC(=O)c1c(C)n([C@H](C)C2CCN(CC(F)(F)F)CC2)c2cccc(C(F)F)c12 [Example 114, (R)-4-(difluoromethyl)-2-methyl-N-((6-methyl-4-(methylthio)-2-oxo-1,2-dihydropyridin-3-yl)methyl)-1-(1-(1-(2,2,2-trifluoroethyl)piperidin-4-yl)ethyl)-1H-indole-3-carboxamide]",< 8.30,< 7.00,
"CSc1cc(C)[nH]c(=O)c1CNC(=O)c1c(C)n([C@H](C)C2CCC(N3CC(OC(F)F)C3)CC2)c2ncc(C)cc12 (stereo partly drawn) [Example 115, 1-((R)-1-(4-(3-(difluoromethoxy)azetidin-1-yl)cyclohexyl)ethyl)-2,5-dimethyl-N-((6-methyl-4-(methylthio)-2-oxo-1,2-dihydropyridin-3-yl)methyl)-1H-pyrrolo[2,3-b]pyridine-3-carboxamide]",> 9.30,> 8.00,
"CSc1cc(C)[nH]c(=O)c1CNC(=O)c1c(C)n([C@H](C)C2CCC(N3CC(OCC(F)F)C3)CC2)c2ncccc12 (stereo partly drawn) [Example 116, 1-((R)-1-(4-(3-(2,2-difluoroethoxy)azetidin-1-yl)cyclohexyl)ethyl)-2-methyl-N-((6-methyl-4-(methylthio)-2-oxo-1,2-dihydropyridin-3-yl)methyl)-1H-pyrrolo[2,3-b]pyridine-3-carboxamide]",> 9.30,> 8.00,
"CC[C@@H](C1CCC(N2CC(OC(F)F)C2)CC1)n1c(C)c(C(=O)NCc2c(SC)cc(C)[nH]c2=O)c2cccnc21 (stereo partly drawn) [Example 117, 1-((S)-1-(4-(3-(difluoromethoxy)azetidin-1-yl)cyclohexyl)propyl)-2-methyl-N-((6-methyl-4-(methylthio)-2-oxo-1,2-dihydropyridin-3-yl)methyl)-1H-pyrrolo[2,3-b]pyridine-3-carboxamide]",8.30 to 9.30,7.00 to 8.00,
"CC[C@H](C1CCC(N2CC(OC(F)F)C2)CC1)n1c(C)c(C(=O)NCc2c(SC)cc(C)[nH]c2=O)c2cccnc21 (stereo partly drawn) [Example 118, 1-((R)-1-(4-(3-(difluoromethoxy)azetidin-1-yl)cyclohexyl)propyl)-2-methyl-N-((6-methyl-4-(methylthio)-2-oxo-1,2-dihydropyridin-3-yl)methyl)-1H-pyrrolo[2,3-b]pyridine-3-carboxamide]",> 9.30,> 8.00,
"CSc1cc(C)[nH]c(=O)c1CNC(=O)c1c(C)n([C@H](C)C2CCC(N3CC[C@@H](OC(F)F)C3)CC2)c2ncccc12 (stereo partly drawn) [Example 119, 1-((R)-1-(4-((R)-3-(difluoromethoxy)pyrrolidin-1-yl)cyclohexyl)ethyl)-2-methyl-N-((6-methyl-4-(methylthio)-2-oxo-1,2-dihydropyridin-3-yl)methyl)-1H-pyrrolo[2,3-b]pyridine-3-carboxamide]",> 9.30,> 8.00,
"CSc1cc(C)[nH]c(=O)c1CNC(=O)c1c(C)n([C@H](C)C2CCC(N3CC[C@H](OC(F)F)C3)CC2)c2ncccc12 (stereo partly drawn) [Example 120, 1-((R)-1-(4-((S)-3-(difluoromethoxy)pyrrolidin-1-yl)cyclohexyl)ethyl)-2-methyl-N-((6-methyl-4-(methylthio)-2-oxo-1,2-dihydropyridin-3-yl)methyl)-1H-pyrrolo[2,3-b]pyridine-3-carboxamide]",> 9.30,7.00 to 8.00,
"CSc1cc(C)[nH]c(=O)c1CNC(=O)c1c(C)n([C@H](C)C2CCC(N3CC(OC(F)F)C3)CC2)c2ncc(F)cc12 (stereo partly drawn) [Example 122, 1-((R)-1-(4-(3-(difluoromethoxy)azetidin-1-yl)cyclohexyl)ethyl)-5-fluoro-2-methyl-N-((6-methyl-4-(methylthio)-2-oxo-1,2-dihydropyridin-3-yl)methyl)-1H-pyrrolo[2,3-b]pyridine-3-carboxamide]",> 9.30,> 8.00,
"CSc1cc(C)[nH]c(=O)c1CNC(=O)c1c(C)n([C@H](C)C2CCC(N3CC(OC4CC4)C3)CC2)c2ncc(Cl)cc12 (stereo partly drawn) [Example 124, 5-chloro-1-((R)-1-(4-(3-cyclopropoxyazetidin-1-yl)cyclohexyl)ethyl)-2-methyl-N-((6-methyl-4-(methylthio)-2-oxo-1,2-dihydropyridin-3-yl)methyl)-1H-pyrrolo[2,3-b]pyridine-3-carboxamide]",> 9.30,> 8.00,
"CSc1cc(C)[nH]c(=O)c1CNC(=O)c1c(C)n([C@H](C)C2CCC(N3CC(OC4CCC4)C3)CC2)c2ncc(Cl)cc12 (stereo partly drawn) [Example 126, 5-chloro-1-((R)-1-(4-(3-cyclobutoxyazetidin-1-yl)cyclohexyl)ethyl)-2-methyl-N-((6-methyl-4-(methylthio)-2-oxo-1,2-dihydropyridin-3-yl)methyl)-1H-pyrrolo[2,3-b]pyridine-3-carboxamide]",> 9.30,> 8.00,
"CSc1cc(C)[nH]c(=O)c1CNC(=O)c1c(C)n([C@H](C)C2CCN(CC(F)(F)F)CC2)c2cc(Br)ccc12 [Example 127, (R)-6-bromo-2-methyl-N-((6-methyl-4-(methylthio)-2-oxo-1,2-dihydropyridin-3-yl)methyl)-1-(1-(1-(2,2,2-trifluoroethyl)piperidin-4-yl)ethyl)-1H-indole-3-carboxamide]",,7.00 to 8.00,> 9.30
"CSc1cc(C)[nH]c(=O)c1CNC(=O)c1c(C)n([C@H](C)C2CCN(CC(F)(F)F)CC2)c2cccc(Br)c12 [Example 128, (R)-4-bromo-2-methyl-N-((6-methyl-4-(methylthio)-2-oxo-1,2-dihydropyridin-3-yl)methyl)-1-(1-(1-(2,2,2-trifluoroethyl)piperidin-4-yl)ethyl)-1H-indole-3-carboxamide]",,7.00 to 8.00,8.30 to 9.30
